pIC50: −log10 of the molar value.

Assay [1] deals with Phosphatidylinositol 4,5-bisphosphate 3-kinase catalytic subunit alpha isoform (Homo sapiens) (UniProt P42336). Nature of the assay: Selectivity interaction (Adapta Assay) EUB0001632a PIK3CA. As to conditions: at 10 µM.
The target in assay [2] is Mitogen-activated protein kinase 7 (Homo sapiens) (UniProt Q13164). The assay is described as follows: Selectivity interaction (KinomeScan (DiscoverX)) EUB0000699a MAPK7. As to conditions: at 10 µM.
Assay [3] concerns the target Ribosomal protein S6 kinase alpha-6 (Homo sapiens, UniProt Q9UK32). The assay is described as follows: Selectivity interaction (KinomeScan (DiscoverX)) EUB0000666a RPS6KA6. As to conditions: at 10 µM.
For assay [4], the target named is Eukaryotic translation initiation factor 2-alpha kinase 1 (Homo sapiens) (UniProt Q9BQI3). Nature of the assay: Selectivity interaction (KinomeScan (DiscoverX)) EUB0000607a EIF2AK1. To be noted: at 10 µM.
Assay [5] deals with Receptor tyrosine-protein kinase erbB-3 (Homo sapiens) (UniProt P21860). To be noted: at 10 µM.
Assay [6] addresses T1, Tyrosine-protein kinase ITK/TSK (Homo sapiens) (UniProt Q08881).
T1 sequence (whole entry): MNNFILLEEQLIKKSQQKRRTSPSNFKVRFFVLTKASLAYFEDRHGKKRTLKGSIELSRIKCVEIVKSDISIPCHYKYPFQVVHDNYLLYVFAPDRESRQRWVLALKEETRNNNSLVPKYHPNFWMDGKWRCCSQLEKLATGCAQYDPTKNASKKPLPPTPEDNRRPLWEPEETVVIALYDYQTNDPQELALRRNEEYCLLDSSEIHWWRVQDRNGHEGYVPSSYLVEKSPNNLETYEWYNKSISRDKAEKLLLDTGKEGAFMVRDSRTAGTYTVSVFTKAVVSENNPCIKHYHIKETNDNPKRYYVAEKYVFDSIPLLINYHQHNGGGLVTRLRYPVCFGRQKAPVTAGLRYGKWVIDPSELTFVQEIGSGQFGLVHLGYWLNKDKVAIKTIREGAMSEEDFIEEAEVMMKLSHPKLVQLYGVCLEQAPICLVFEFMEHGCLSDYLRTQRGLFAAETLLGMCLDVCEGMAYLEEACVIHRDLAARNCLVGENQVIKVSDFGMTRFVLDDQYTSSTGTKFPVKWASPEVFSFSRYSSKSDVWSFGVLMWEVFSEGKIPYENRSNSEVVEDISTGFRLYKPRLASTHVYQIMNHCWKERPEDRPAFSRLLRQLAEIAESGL
Nature of the assay: Selectivity interaction (Kinase panel (Invitrogen)) EUB0000639a ITK. As to conditions: at 200 nM.

Assay [7] has as its target Serine/threonine-protein kinase MARK2 (Homo sapiens) (UniProt Q7KZI7). Nature of the assay: Selectivity interaction (ActivX KiNativ screen (kinase selectivity in THP-1 cell lysates)) EUB0000639a MARK2. It is filed as subcellular. To be noted: lysate, at 0.04 µM.
In assay [8] the target is Proto-oncogene tyrosine-protein kinase receptor Ret (Homo sapiens, UniProt P07949). The assay is described as follows: Selectivity interaction (Kinase panel (Invitrogen)) EUB0000639a RET. To be noted: at 200 nM.
Assay [9] addresses T2, Ribosomal protein S6 kinase alpha-1 (Homo sapiens, UniProt Q15418). The assay is described as follows: Selectivity interaction (KinomeScan (DiscoverX)) EUB0000311b RPS6KA1. As to conditions: at 1 µM.
Assay [10] concerns the target Hepatocyte growth factor receptor (Homo sapiens, UniProt P08581). The assay is described as follows: Selectivity interaction (Kinase panel (literature)) EUB0001199aCl MET. To be noted: at 1 µM.
Assay [11] deals with Mitogen-activated protein kinase kinase kinase 9 (Homo sapiens) (UniProt P80192). Nature of the assay: Selectivity interaction (ProQinase) EUB0000171b MAP3K9.
Another assay deals with Misshapen-like kinase 1 (Homo sapiens, UniProt Q8N4C8). Nature of the assay: Selectivity interaction (ProQinase) EUB0000171b MINK1.
The target of assay [12] is T3, Mitogen-activated protein kinase kinase kinase 1 (Homo sapiens, UniProt Q13233). The assay is described as follows: Selectivity interaction (Ambit KINOMEscan and KiNATiv profiling in Jurkat cells) EUB0000090b MAP3K1. The class given is cell-based. As to conditions: at 1 µM.
Assay [13] addresses Serine/threonine-protein kinase PLK3 (Homo sapiens, UniProt Q9H4B4).
Assay [14] concerns the target Phosphatidylinositol 3-kinase catalytic subunit type 3 (Homo sapiens, UniProt Q8NEB9). Nature of the assay: Selectivity interaction (Kinase panel (ADP-Glow assay)) EUB0000877a PIK3C3. For orientation: In ADP-Glo the light output rises with the ADP produced.
Assay [15] deals with T4, Protein kinase C epsilon type (Homo sapiens) (UniProt Q02156).
T4 sequence (whole entry): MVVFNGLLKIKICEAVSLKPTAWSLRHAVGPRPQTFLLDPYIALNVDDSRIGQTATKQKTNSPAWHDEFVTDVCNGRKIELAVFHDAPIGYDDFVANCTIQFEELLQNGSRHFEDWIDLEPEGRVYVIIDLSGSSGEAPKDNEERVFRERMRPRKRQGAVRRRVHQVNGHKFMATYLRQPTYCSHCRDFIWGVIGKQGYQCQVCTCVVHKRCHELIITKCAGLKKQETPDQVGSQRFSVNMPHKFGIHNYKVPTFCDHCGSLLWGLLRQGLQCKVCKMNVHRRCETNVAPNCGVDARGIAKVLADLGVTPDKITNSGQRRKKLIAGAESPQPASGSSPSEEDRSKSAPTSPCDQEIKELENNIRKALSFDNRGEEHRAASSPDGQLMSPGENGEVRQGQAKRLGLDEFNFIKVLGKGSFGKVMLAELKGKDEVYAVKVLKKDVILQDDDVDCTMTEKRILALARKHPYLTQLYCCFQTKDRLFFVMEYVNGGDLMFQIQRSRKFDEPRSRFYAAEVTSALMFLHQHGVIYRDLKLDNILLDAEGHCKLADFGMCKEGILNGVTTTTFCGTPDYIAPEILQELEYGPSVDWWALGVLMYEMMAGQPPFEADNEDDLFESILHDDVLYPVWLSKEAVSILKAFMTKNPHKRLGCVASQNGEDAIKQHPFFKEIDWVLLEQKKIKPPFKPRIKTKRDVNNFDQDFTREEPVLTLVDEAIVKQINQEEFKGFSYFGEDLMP
The assay is described as follows: Selectivity interaction (KinomeScan (DiscoverX)) EUB0000618a PRKCE. As to conditions: at 10 µM.

In assay [16] the target is T2, Ribosomal protein S6 kinase alpha-1. The assay is described as follows: Selectivity interaction (KinomeScan (DiscoverX)) EUB0000618a RPS6KA1. To be noted: at 10 µM.
The target in assay [17] is Vascular endothelial growth factor receptor 1 (Homo sapiens) (UniProt P17948). Nature of the assay: Selectivity interaction (Kinase panel (DSF assay)) EUB0001558a FLT1. Background: DSF heats the sample and reads unfolding from a dye or from intrinsic fluorescence.
Assay [18] concerns the target Fibroblast growth factor receptor 1 (Homo sapiens, UniProt P11362). Nature of the assay: Selectivity interaction (KinomeScan (DiscoverX)) EUB0001079a FGFR1. To be noted: at 1 µM.
The target of assay [19] is Tyrosine-protein kinase Lyn (Homo sapiens, UniProt P07948). The assay is described as follows: Selectivity interaction (KinomeScan (DiscoverX)) EUB0001079a LYN. As to conditions: at 1 µM.
The target in assay [20] is T3, Mitogen-activated protein kinase kinase kinase 1. The assay is described as follows: Selectivity interaction (KinomeScan (DiscoverX)) EUB0001079a MAP3K1. To be noted: at 1 µM.
Assay [21] deals with Serine/threonine-protein kinase N1 (Homo sapiens, UniProt Q16512). The assay is described as follows: Selectivity interaction (KinomeScan (DiscoverX)) EUB0001079a PKN1. To be noted: at 1 µM.
Assay [22] concerns the target MAP kinase-interacting serine/threonine-protein kinase 1 (Homo sapiens) (UniProt Q9BUB5). The assay is described as follows: Selectivity interaction (KinomeScan (DiscoverX)) EUB0000229b MKNK1. As to conditions: at 10 µM.

Sequence of Misshapen-like kinase 1 (Q8N4C8 whole entry, looked up): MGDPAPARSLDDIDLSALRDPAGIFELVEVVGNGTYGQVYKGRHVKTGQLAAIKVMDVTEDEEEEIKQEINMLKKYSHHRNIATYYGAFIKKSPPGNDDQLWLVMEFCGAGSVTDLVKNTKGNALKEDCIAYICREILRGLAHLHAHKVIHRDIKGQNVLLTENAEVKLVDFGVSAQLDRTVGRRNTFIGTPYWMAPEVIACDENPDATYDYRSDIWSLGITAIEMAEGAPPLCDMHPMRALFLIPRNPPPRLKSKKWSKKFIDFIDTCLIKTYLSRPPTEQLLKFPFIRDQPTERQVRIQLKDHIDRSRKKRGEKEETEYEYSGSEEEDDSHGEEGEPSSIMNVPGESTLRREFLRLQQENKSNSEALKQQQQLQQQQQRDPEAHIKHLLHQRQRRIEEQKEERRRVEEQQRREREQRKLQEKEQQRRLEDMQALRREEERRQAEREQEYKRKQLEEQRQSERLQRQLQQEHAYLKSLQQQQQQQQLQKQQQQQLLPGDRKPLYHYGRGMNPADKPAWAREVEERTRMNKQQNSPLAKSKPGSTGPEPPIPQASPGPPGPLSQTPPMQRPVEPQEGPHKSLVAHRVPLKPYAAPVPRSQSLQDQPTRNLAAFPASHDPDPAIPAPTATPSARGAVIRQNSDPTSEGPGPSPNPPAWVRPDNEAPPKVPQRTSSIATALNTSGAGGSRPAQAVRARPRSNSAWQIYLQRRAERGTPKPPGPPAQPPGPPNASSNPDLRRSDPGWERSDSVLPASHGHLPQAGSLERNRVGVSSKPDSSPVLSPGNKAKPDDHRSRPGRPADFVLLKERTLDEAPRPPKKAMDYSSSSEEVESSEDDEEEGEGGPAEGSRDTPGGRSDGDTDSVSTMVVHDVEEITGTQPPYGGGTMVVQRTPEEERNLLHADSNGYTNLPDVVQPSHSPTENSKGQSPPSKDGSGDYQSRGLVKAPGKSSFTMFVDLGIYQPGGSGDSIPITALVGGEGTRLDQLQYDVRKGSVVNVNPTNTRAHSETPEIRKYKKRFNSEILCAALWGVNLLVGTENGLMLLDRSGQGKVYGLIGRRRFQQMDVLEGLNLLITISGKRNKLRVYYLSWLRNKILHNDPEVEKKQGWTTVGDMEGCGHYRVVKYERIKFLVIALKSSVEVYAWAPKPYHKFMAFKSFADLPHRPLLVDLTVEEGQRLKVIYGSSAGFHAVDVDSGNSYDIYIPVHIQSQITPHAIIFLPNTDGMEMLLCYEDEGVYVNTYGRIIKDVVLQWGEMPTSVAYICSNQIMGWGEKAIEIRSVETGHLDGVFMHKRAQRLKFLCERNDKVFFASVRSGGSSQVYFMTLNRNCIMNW
T3 sequence (Q13233 whole entry): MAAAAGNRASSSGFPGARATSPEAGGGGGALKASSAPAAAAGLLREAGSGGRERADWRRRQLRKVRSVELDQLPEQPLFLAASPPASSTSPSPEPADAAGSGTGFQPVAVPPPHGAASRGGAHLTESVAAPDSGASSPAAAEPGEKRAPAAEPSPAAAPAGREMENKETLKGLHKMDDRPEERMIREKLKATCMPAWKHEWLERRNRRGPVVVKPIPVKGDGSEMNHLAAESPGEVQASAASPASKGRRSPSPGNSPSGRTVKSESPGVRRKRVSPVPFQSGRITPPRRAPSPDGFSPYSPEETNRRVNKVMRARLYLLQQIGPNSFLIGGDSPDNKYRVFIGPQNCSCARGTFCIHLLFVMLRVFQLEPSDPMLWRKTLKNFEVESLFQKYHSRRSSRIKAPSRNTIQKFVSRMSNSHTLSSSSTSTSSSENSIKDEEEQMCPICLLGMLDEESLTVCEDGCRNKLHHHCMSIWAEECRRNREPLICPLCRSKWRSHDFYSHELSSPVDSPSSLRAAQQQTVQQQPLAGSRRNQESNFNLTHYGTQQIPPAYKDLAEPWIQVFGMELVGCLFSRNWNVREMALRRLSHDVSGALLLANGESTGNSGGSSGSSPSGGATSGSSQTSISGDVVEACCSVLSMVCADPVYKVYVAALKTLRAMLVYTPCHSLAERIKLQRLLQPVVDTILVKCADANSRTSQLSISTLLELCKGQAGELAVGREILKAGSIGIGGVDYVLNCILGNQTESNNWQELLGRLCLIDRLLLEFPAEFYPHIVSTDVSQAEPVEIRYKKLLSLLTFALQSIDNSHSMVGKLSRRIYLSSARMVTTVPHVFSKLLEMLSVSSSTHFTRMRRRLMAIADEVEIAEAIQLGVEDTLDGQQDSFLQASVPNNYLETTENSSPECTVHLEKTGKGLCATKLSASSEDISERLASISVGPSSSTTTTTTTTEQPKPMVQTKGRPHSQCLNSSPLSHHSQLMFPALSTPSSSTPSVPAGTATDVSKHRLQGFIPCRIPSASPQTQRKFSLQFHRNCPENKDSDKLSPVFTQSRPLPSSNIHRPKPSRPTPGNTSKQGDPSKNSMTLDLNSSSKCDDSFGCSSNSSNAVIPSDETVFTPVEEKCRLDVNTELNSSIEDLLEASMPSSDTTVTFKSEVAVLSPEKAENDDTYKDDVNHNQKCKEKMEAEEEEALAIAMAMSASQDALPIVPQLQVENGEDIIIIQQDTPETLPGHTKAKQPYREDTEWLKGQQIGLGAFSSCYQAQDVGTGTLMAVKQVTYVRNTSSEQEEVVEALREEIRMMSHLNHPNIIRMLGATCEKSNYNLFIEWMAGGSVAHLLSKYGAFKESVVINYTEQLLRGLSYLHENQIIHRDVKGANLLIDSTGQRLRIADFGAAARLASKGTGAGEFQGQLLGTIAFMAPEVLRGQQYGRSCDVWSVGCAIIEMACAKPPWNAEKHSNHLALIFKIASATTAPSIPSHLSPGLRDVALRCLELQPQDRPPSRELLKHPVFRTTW
T2 sequence (Q15418 whole entry): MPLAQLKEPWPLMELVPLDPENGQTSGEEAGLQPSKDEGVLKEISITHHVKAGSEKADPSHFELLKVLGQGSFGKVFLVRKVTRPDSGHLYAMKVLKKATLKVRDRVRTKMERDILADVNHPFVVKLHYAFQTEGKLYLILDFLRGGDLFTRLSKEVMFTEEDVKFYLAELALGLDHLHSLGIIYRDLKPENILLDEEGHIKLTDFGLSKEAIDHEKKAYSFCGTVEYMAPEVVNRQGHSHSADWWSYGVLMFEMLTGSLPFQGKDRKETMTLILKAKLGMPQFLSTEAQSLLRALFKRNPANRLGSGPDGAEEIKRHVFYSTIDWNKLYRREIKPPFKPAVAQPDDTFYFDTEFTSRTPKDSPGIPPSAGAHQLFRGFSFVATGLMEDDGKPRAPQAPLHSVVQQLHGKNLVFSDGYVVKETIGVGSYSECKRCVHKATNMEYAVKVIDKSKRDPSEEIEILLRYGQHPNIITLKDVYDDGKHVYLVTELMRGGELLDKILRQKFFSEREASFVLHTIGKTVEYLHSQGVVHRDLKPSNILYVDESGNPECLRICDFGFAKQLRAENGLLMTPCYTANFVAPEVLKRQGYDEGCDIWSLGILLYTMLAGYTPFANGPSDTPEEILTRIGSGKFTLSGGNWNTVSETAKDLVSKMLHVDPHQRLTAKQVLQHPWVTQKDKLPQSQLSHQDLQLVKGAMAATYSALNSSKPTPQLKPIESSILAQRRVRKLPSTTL
Sequence of Mitogen-activated protein kinase kinase kinase 9 (Homo sapiens) (P80192 whole entry, looked up): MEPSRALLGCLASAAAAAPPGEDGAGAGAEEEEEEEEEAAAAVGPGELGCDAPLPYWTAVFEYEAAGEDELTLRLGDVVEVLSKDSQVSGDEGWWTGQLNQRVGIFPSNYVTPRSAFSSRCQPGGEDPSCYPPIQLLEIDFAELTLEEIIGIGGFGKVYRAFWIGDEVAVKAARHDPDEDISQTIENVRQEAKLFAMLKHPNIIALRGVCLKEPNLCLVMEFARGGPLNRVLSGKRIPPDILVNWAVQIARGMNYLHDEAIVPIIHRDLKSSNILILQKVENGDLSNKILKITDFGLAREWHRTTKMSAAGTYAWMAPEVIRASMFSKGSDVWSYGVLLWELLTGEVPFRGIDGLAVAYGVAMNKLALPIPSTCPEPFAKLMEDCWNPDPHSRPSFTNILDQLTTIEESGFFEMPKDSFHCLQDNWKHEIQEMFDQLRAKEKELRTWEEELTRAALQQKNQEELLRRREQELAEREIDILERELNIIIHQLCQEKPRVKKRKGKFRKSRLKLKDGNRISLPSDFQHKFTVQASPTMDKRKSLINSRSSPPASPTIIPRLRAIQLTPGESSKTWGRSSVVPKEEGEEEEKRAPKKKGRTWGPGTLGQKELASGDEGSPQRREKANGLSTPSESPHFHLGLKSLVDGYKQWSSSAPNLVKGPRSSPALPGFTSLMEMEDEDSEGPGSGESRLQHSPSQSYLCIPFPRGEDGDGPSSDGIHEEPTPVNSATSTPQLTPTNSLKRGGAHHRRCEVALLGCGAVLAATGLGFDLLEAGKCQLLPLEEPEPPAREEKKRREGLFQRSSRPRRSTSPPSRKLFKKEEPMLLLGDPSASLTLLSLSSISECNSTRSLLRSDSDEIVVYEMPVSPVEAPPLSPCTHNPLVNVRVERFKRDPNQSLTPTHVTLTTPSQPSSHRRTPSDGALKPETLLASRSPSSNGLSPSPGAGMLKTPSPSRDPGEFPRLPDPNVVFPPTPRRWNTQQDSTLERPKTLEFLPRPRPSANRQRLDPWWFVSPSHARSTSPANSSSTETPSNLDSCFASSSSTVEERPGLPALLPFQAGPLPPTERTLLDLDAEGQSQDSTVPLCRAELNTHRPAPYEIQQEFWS

Regarding `Cn1cc(-n2cnc3c(NCc4nc5cc(Cl)c(Cl)cc5[nH]4)nc(N4CCOCC4)nc32)cn1`, the % of inhibition in [1] came to 22.8%.

`CCN(CC)CCCCNc1ncc2cc(-c3cc(OC)cc(OC)c3)c(NC(=O)NC(C)(C)C)nc2n1` displayed a % of control in [2] of 36%.

Turning to `O=C(NOC[C@H](O)CO)c1ccc(F)c(F)c1Nc1ccc(I)cc1F`, the % of control in assay [3] came to 80%.

In turn, `CNC(=O)Nc1ccc(-c2nc(N3CC4CCC(C3)O4)c3cnn(C4CCC5(CC4)OCCO5)c3n2)cc1` registered a % of control in assay [4] of 100%.

Take `Cc1cc([C@@H](C)Nc2ccccc2C(=O)O)c2nc(N3CCOCC3)cc(=O)n2c1` [AZD-6482]: the % of control in assay [5] is 100%.

Regarding `CC[C@@H]1[C@H](F)C(=O)N[C@@H]1COc1nccc2cc(C(N)=O)c(OC)cc12` [ZIMLOVISERTIB], the figures for the % of inhibition in [6], in [7] and in assay [8] were -1.94%, -13.3% and 66%, respectively.

Compound `CCc1ccccc1C(=O)Nc1n[nH]c2c(C)c(F)c(C3C(C#N)=C(C)N(C)C(C)=C3C#N)cc12` [BAY-3827] had a % of control in [9] of 1.8%.

Take `CN1Cc2nccc(-c3cn(C)nc3-c3ccc(F)cc3)c2C1=O`: the % of inhibition in [10] is 10%.

As to `C=CC(=O)Nc1cccc(C(=O)Nc2ccc(Nc3cc(-c4[nH]c(SC)nc4C)ccn3)cc2)c1`, the % of control in assay [11] (at 1 µM) worked out at 80%; in assay [11] (at 5 µM), 45%; on Misshapen-like kinase 1 (at 1 µM), 75%; on Misshapen-like kinase 1 (at 5 µM) it was 44%.

`CN(C)C/C=C/C(=O)Nc1ccc(C(=O)N2CCCC(Nc3ncc(Cl)c(-c4c[nH]c5ccccc45)n3)C2)cc1` (stereo not given): the % of control in [12] was found to be 82%.

A word on the pIC50: it is the IC50 on a negative log10 scale, so that one unit is a factor of ten. A lower pIC50 goes with a large IC50. `CCc1cccc(CC)c1NC(=O)c1nn(C)c2c1CCc1cnc(Nc3ccc(C(=O)NC4CCN(C)CC4)cc3OC(F)(F)F)nc1-2` had a pIC50 in assay [13] below 5.00.

As to `CCC(=O)N1CC[C@H](Nc2ncnc3c2CN(c2cnc(OC)c(C(F)(F)F)c2)CC3)C1` [LENIOLISIB], in assay [14], the pIC50 is below 5.04.

Turning to `O[C@H]1CC[C@H](Nc2ncc3nc(Nc4c(F)cc(F)cc4F)n([C@H]4CCOC4)c3n2)CC1`, the results for the % of control in assay [15] and in [16] were 98% and 70%, respectively.

`CC(C)(O)[C@H](F)CN1Cc2cc(NC(=O)c3cnn4cccnc34)c(N3CCOCC3)cc2C1=O` returned a dTM in [17] of 3.3 K.

Consider `Nc1cnc(N2CCc3cc(S(=O)(=O)Nc4c(F)cc(Cl)cc4F)cc(N4CCCC4=O)c32)nc1` [TP-020n], for which the % of control in [18] was 88%; in assay [19] it was 88%; in [20] it was 100%; in [21] it was 95%.

With `COc1cc(N(C)c2ccnc3ccc(C(F)(F)F)cc23)cc(OC)c1OC`, the % binding in assay [22] turned out to be 89%.

These data come from ChEMBL document CHEMBL5465560, “Selectivity Literature for EUbOPEN Chemogenomic Library” (2024).
